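Abbreviation: GI50, concentration required for 50% inhibition of growth. TGI denotes the concentration required for complete inhibition of growth.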
How the values were obtained:
Experiment in all cases: growth of human tumour cells (NCI), 384-well format
786-0 renal = test system: 786-0 renal
A549 NSCLC = test system: A549 NSCLC
ACHN renal = test system: ACHN renal
BT-549 breast = test system: BT-549 breast
CAKI-1 renal = test system: CAKI-1 renal
COLO 205 colon = test system: COLO 205 colon
DU-145 prostate = test system: DU-145 prostate
HCC-2998 colon = test system: HCC-2998 colon
HCT-116 colon = test system: HCT-116 colon
HCT-15 colon = test system: HCT-15 colon
HL-60(TB) leukemia = test system: HL-60(TB) leukemia
HS 578T breast = test system: HS 578T breast
IGROV1 ovarian = test system: IGROV1 ovarian
K-562 leukemia = test system: K-562 leukemia
KM12 colon = test system: KM12 colon
LOX IMVI melanoma = test system: LOX IMVI melanoma
M14 melanoma = test system: M14 melanoma
MALME-3M melanoma = test system: MALME-3M melanoma
MDA-MB-231 breast = test system: MDA-MB-231 breast
MDA-MB-435 melanoma = test system: MDA-MB-435 melanoma
MDA-MB-468 breast = test system: MDA-MB-468 breast
MOLT-4 leukemia = test system: MOLT-4 leukemia
NCI-H226 lung = test system: NCI-H226 lung
NCI-H23 lung = test system: NCI-H23 lung
NCI-H322M lung = test system: NCI-H322M lung
NCI-H460 NSCLC = test system: NCI-H460 NSCLC
NCI-H522 lung = test system: NCI-H522 lung
NCI/ADR-RES ovarian = test system: NCI/ADR-RES ovarian
OVCAR-3 ovarian = test system: OVCAR-3 ovarian
OVCAR-4 ovarian = test system: OVCAR-4 ovarian
OVCAR-5 ovarian = test system: OVCAR-5 ovarian
OVCAR-8 ovarian = test system: OVCAR-8 ovarian
PC-3 prostate = test system: PC-3 prostate
RPMI-8226 leukemia = test system: RPMI-8226 leukemia
RXF 393 renal = test system: RXF 393 renal
SF-295 CNS = test system: SF-295 CNS
SK-MEL-2 melanoma = test system: SK-MEL-2 melanoma
SK-MEL-28 melanoma = test system: SK-MEL-28 melanoma
SK-OV-3 ovarian = test system: SK-OV-3 ovarian
SN12C renal = test system: SN12C renal
SR leukemia = test system: SR leukemia
SW-620 colon = test system: SW-620 colon
T-47D breast = test system: T-47D breast
TK-10 renal = test system: TK-10 renal
U251 glioblastoma = test system: U251 glioblastoma
UACC-62 melanoma = test system: UACC-62 melanoma
UO-31 renal = test system: UO-31 renal

## C[C@H](NC(=O)c1c(N)nn2cccnc12)c1cc2cccc(C#Cc3cnn(C)c3)c2c(=O)n1-c1ccccc1
786-0 renal
  GI50: 4.91 µM
  TGI: 17.2 µM
A549 NSCLC
  GI50: 4.45 µM
  TGI: 17.6 µM
ACHN renal
  GI50: 4.31 µM
  TGI: 19.4 µM
BT-549 breast
  GI50: 1.48 µM
  TGI: 9.11 µM
CAKI-1 renal
  GI50: 1.28 µM
  TGI: 15.7 µM
COLO 205 colon
  GI50: 8.8 µM
  TGI: 22.7 µM
DU-145 prostate
  GI50: 7.97 µM
  TGI: 23.8 µM
HCC-2998 colon
  GI50: 3.75 µM
  TGI: 15.1 µM
HCT-116 colon
  GI50: 6.64 µM
  TGI: 20 µM
HCT-15 colon
  GI50: 5.88 µM
  TGI: 18.7 µM
HL-60(TB) leukemia
  GI50: 1.15 µM
  TGI: 4.94 µM
HS 578T breast
  GI50: 0.846 µM
  TGI: 6.01 µM
IGROV1 ovarian
  GI50: 0.559 µM
  TGI: 2.1 µM
K-562 leukemia
  GI50: 7.56 µM
  TGI: 20.3 µM
KM12 colon
  GI50: 10.3 µM
  TGI: 23.2 µM
LOX IMVI melanoma
  GI50: 2.95 µM
  TGI: 12.7 µM
M14 melanoma
  GI50: 11.1 µM
  TGI: 24.9 µM
MALME-3M melanoma
  GI50: 6.62 µM
  TGI: 20.5 µM
MDA-MB-231 breast
  GI50: 6.03 µM
  TGI: 18.3 µM
MDA-MB-435 melanoma
  GI50: 10.6 µM
  TGI: 24.1 µM
MDA-MB-468 breast
  GI50: 0.507 µM
  TGI: 3.34 µM
MOLT-4 leukemia
  GI50: 0.847 µM
  TGI: 2.21 µM
NCI-H226 lung
  GI50: 3.95 µM
  TGI: 16.3 µM
NCI-H23 lung
  GI50: 4.63 µM
  TGI: 18.9 µM
NCI-H322M lung
  GI50: 9.35 µM
  TGI: 23.9 µM
NCI-H460 NSCLC
  GI50: 3.71 µM
  TGI: 16.7 µM
NCI-H522 lung
  GI50: 4.55 µM
  TGI: 18.7 µM
NCI/ADR-RES ovarian
  GI50: 5.28 µM
  TGI: 16.2 µM
OVCAR-3 ovarian
  GI50: 2.93 µM
  TGI: 14.9 µM
OVCAR-4 ovarian
  GI50: 11.9 µM
  TGI: 25.4 µM
OVCAR-5 ovarian
  GI50: 8.39 µM
  TGI: 22.2 µM
OVCAR-8 ovarian
  GI50: 8.07 µM
  TGI: 21.3 µM
PC-3 prostate
  GI50: 1.84 µM
  TGI: 12.9 µM
RPMI-8226 leukemia
  GI50: 1.71 µM
  TGI: 3.73 µM
RXF 393 renal
  GI50: 1.3 µM
  TGI: 5.68 µM
SF-295 CNS
  GI50: 4.14 µM
  TGI: 17.1 µM
SK-MEL-2 melanoma
  GI50: 12.4 µM
  TGI: 24.9 µM
SK-MEL-28 melanoma
  GI50: 4.42 µM
  TGI: 17.8 µM
SK-OV-3 ovarian
  GI50: 2.19 µM
  TGI: 12.5 µM
SN12C renal
  GI50: 4.38 µM
  TGI: 20 µM
SR leukemia
  GI50: 4.16 µM
  TGI: 16.9 µM
SW-620 colon
  GI50: 15.3 µM
  TGI: 28.7 µM
T-47D breast
  GI50: 0.375 µM
  TGI: 2.41 µM
TK-10 renal
  GI50: 3.93 µM
  TGI: 17.3 µM
U251 glioblastoma
  GI50: 12.3 µM
  TGI: 25.1 µM
UACC-62 melanoma
  GI50: 1.54 µM
  TGI: 12.1 µM
UO-31 renal
  GI50: 3.18 µM
  TGI: 14.1 µM

— PubChem BioAssay (NCI)
